Results taken from patent US10774064B2 (Cadent Therapeutics, Inc., priority 2016, dated 2020).

Molecular target: T1, small-conductance Ca2+-activated K+ channels (SK channels, subtype 2) (Homo sapiens, UniProt Q9H2S1)
T1 construct: expressed in transfected cells; host or cells: HEK293
Assay: whole-cell patch-clamp of ionic current through SK2 channels in HEK293 cells (SC100)
Type: cell-based
Settings: concentration that increases the basal current by 100%; HEK293 cells expressing SK2 channels
How it was run: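 Whole-cell patch-clamp recording of current in HEK293 cells expressing SK2 channels. SC100 is the compound concentration that increases basal current by 100%.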

Row | SC100 | SMILES
1 | + (+ means >1 uM) | Cc1cc(C)n(-c2cc(C(F)F)nc(NC3CCC(F)(F)C3)n2)n1 (stereo not drawn) [Compound 181, N-(3,3-difluorocyclopentyl)-4-(difluoromethyl)-6-(3,5-dimethyl-1H-pyrazol-1-yl)pyrimidin-2-amine]
2 | ++ (++ means 200 nM-1000 nM) | COC(=O)N1CC(OCc2cc(NC3CCC(F)(F)CC3)nc(-n3ccc(CF)n3)n2)C1 [Compound 335, methyl 3-((6-((4,4-difluorocyclohexyl)amino)-2-(3-(fluoromethyl)-1H-pyrazol-1-yl)pyrimidin-4-yl)methoxy)azetidine-1-carboxylate]
3 | + (+ means >1 uM) | Cc1cc(C)n(-c2cccc(NC3CCC(F)(F)CC3)n2)n1 [Compound 154, N-(4,4-difluorocyclohexyl)-6-(3,5-dimethyl-1H-pyrazol-1-yl)pyridin-2-amine]
4 | ++ (++ means 200 nM-1000 nM) | Cc1ccn(-c2nc(NC3CCC(F)(F)CC3)cc(OC3CN(C(=O)C(C)C)C3)n2)n1 [Compound 210, 1-(3-((6-((4,4-difluorocyclohexyl)amino)-2-(3-methyl-1H-pyrazol-1-yl)pyrimidin-4-yl)oxy)azetidin-1-yl)-2-methylpropan-1-one]
5 | + (+ means >1 uM) | Cc1cc(C)n(-c2cc(NCc3ncco3)cc(NC3CCC(F)(F)CC3)n2)n1 [Compound 259, N2-(4,4-difluorocyclohexyl)-6-(3,5-dimethyl-1H-pyrazol-1-yl)-N4-(oxazol-2-ylmethyl)pyridine-2,4-diamine]
6 | + (+ means >1 uM) | Cc1ccn(-c2cc(S(C)(=O)=O)cc(NC3CCC(F)(F)CC3)n2)n1 [Compound 153, N-(4,4-difluorocyclohexyl)-6-(3-methyl-1H-pyrazol-1-yl)-4-(methylsulfonyl)pyridin-2-amine]
7 | + (+ means >1 uM) | Cc1cc(C)n(-c2nc(NC3CCC(F)(F)CC3)cc(OCc3ncn(C)n3)n2)n1 [Compound 272]
8 | ++ (++ means 200 nM-1000 nM) | Cc1cc(C)n(-c2nc(NC3CCC(F)(F)CC3)cc(C(F)(F)F)n2)n1 [Compound 162, N-(4,4-difluorocyclohexyl)-2-(3,5-dimethyl-1H-pyrazol-1-yl)-6-(trifluoromethyl)pyrimidin-4-amine]
9 | + (+ means >1 uM) | Cc1cc(C)n(-c2cc(N3CCOC(C(N)=O)C3)nc(NC3CCC(F)(F)CC3)n2)n1 (stereo not drawn) [Compound 114, 4-(2-((4,4-difluorocyclohexyl)amino)-6-(3,5-dimethyl-1H-pyrazol-1-yl)pyrimidin-4-yl)morpholine-2-carboxamide]
10 | ++ (++ means 200 nM-1000 nM) | Cc1cc(NC2CCC(F)(F)CC2)nc(-n2nc(CF)cc2C)n1 [Compound 256, N-(4,4-difluorocyclohexyl)-2-(3-(fluoromethyl)-5-methyl-1H-pyrazol-1-yl)-6-methylpyrimidin-4-amine]
11 | ++ (++ means 200 nM-1000 nM) | Cc1cc(C)n(-c2nc(NCc3cnn(C)n3)cc(NC3CCC(F)(F)CC3)n2)n1 [Compound 235, N4-(4,4-difluorocyclohexyl)-2-(3,5-dimethyl-1H-pyrazol-1-yl)-N6-((2-methyl-2H-1,2,3-triazol-4-yl)methyl)pyrimidine-4,6-diamine]
12 | + (+ means >1 uM) | Cc1cc(C)n(-c2nc(NC3CCC(F)(F)CC3)cc(NC(C)c3nccs3)n2)n1 (stereo not drawn) [Compound 124, N4-(4,4-difluorocyclohexyl)-2-(3,5-dimethyl-1H-pyrazol-1-yl)-N6-(1-(thiazol-2-yl)ethyl)pyrimidine-4,6-diamine]
13 | ++ (++ means 200 nM-1000 nM) | Cc1cc(C)n(-c2cc(NCc3cnn(C)n3)cc(NC3CCC(F)(F)CC3)n2)n1 [Compound 248, N2-(4,4-difluorocyclohexyl)-6-(3,5-dimethyl-1H-pyrazol-1-yl)-N4-((2-methyl-2H-1,2,3-triazol-4-yl)methyl)pyridine-2,4-diamine]
14 | + (+ means >1 uM) | CCN(c1nc(C)cc(-n2nc(C)cc2C)n1)C1CCC(F)(F)CC1 [Compound 160, N-(4,4-difluorocyclohexyl)-4-(3,5-dimethyl-1H-pyrazol-1-yl)-N-ethyl-6-methylpyrimidin-2-amine]
15 | + (+ means >1 uM) | Cc1cc(C)n(-c2cc(N(C)C3COC3)cc(N(C)C3CCC(F)(F)CC3)n2)n1 [Compound 240, N2-(4,4-difluorocyclohexyl)-6-(3,5-dimethyl-1H-pyrazol-1-yl)-N2,N4-dimethyl-N4-(oxetan-3-yl)pyridine-2,4-diamine]

Same assay, conditions: whole-cell patch-clamp, HEK293 cells expressing SK2 channels; concentration that increases the basal current by 100%

Row | SC100 (μM) | SMILES
16 | + (+ means >1 uM) | COc1cc(NC2CCC(F)(F)CC2)nc(-n2ccc(C)n2)n1 [IN11053-005-P1]
17 | ++ (++ means 200 nM-1000 nM) | Cc1csc(-c2cc(N3CC4(COC4)C3)nc(NC3CCC(F)(F)CC3)n2)n1 [NSSy6558, N-(4,4-difluorocyclohexyl)-4-(4-methylthiazol-2-yl)-6-(2-oxa-6-azaspiro [3.3]heptan-6-yl)pyrimidin-2-amine]
18 | + (+ means >1 uM) | Cc1ccn(-c2nc(NC3CCC(C(N)=O)CC3)cc(N3CCOCC3)n2)n1 (stereo not drawn) [NSSy6541]
19 | + (+ means >1 uM) | Cc1cc(NC2CCC(F)(F)CC2)nc(CC#N)n1 [IN11273-018-P1, 2-(4-((4,4-difluorocyclohexyl)amino)-6-methylpyrimidin-2-yl) acetonitrile]
20 | ++ (++ means 200 nM-1000 nM) | CNc1cc(NC2CCC(F)(F)CC2)nc(-c2nc(C)cs2)n1 [IN11055-049-P1]
21 | + (+ means >1 uM) | Cc1cc(C)n(-c2nc(C(C)O)cc(N(C)C3CCCCC3)n2)n1 (stereo not drawn) [IN10973-004-P1]
22 | + (+ means >1 uM) | Cc1ccn(-c2cc(NC3CCC(F)(F)CC3)nc(-n3ccc(C)n3)c2)n1 [IN11054-030-P1, N-(4,4-difluorocyclohexyl)-4,6-bis(3-methyl-1H-pyrazol-1-yl)pyridin-2-amine]
23 | ++ (++ means 200 nM-1000 nM) | Cc1ccn(-c2cc(CC#N)nc(NC3CCC(F)(F)CC3)n2)n1 [NSSy6800, 2-(2-((4,4-difluorocyclohexyl)amino)-6-(3-methyl-1H-pyrazol-1-yl)pyrimidin-4-yl)acetonitrile]
24 | + (+ means >1 uM) | Cc1ccn(-c2cc(N3CC4COCC4C3)nc(NC3CCC(F)(F)CC3)n2)n1 (stereo not drawn) [NSSy6585]
25 | + (+ means >1 uM) | OC(c1cc(NC2CCC(F)(F)CC2)nc(-n2ccc(C3CC3)n2)n1)C(F)(F)F (stereo not drawn) [IN11217-068-P1, 1-(2-(3-cyclopropyl-1H-pyrazol-1-yl)-6-((4,4-difluorocyclohexyl)amino)pyrimidin-4-yl)-2,2,2-trifluoroethan-1-ol]
26 | ++ (++ means 200 nM-1000 nM) | Cc1csc(-c2nc(NC3CCC(F)(F)CC3)cc(N3CCOC(CO)C3)n2)n1 (stereo not drawn) [IN10881-025-P1]
27 | ++ (++ means 200 nM-1000 nM) | FC1(F)CCC(Nc2nccc(-n3ccc(C4CC4)n3)n2)CC1 [NSSy6945, 4-(3-cyclopropyl-1H-pyrazol-1-yl)-N-(4,4-difluorocyclohexyl)pyrimidin-2-amine]
28 | + (+ means >1 uM) | Cc1csc(-c2cc(C#N)nc(NC3CCC(F)(F)CC3)n2)n1 [NSSy6710, 2-((4,4-difluorocyclohexyl)amino)-6-(4-methylthiazol-2-yl)pyrimidine-4-carbonitrile]
29 | ++ (++ means 200 nM-1000 nM) | Cc1ccn(-c2cc(N3CCOC(C(C)(C)O)C3)nc(NC3CCC(F)(F)CC3)n2)n1 (stereo not drawn) [NSSy6958]
30 | + (+ means >1 uM) | Cc1ccn(-c2nc(NC34CC5CC(CC(O)(C5)C3)C4)cc(N3CCOCC3)n2)n1 [NSSy6511]
31 | ++ (++ means 200 nM-1000 nM) | Cc1ccn(-c2cc(CN3CCOC3=O)cc(NC3CCC(F)(F)CC3)n2)n1 [IN10991-091-P1]
32 | + (+ means >1 uM) | Cc1cc(C)n(-c2nc(NC3CCCC(F)(F)C3)cc(N3CCOCC3)n2)n1 (stereo not drawn) [NSSy6265]
33 | + (+ means >1 uM) | Cc1ccn(-c2nc(NC3CCC(F)(F)CC3)cc(OC(C)C)n2)n1 [IN11053-021-P1]
34 | + (+ means >1 uM) | NC(=O)OCc1cc(N(C(N)=O)C2CCC(F)(F)CC2)nc(-n2ccc(C3CC3)n2)n1 [IN11137-079-P1, (2-(3-cyclopropyl-1H-pyrazol-1-yl)-6-(1-(4,4-difluorocyclohexyl)ureido)pyrimidin-4-yl)methyl carbamate]
35 | + (+ means >1 uM) | Cc1ccn(-c2nc(NC3CCC(F)(F)CC3)cc(S(C)(=O)=O)n2)n1 [IN10973-041-P1]
36 | ++ (++ means 200 nM-1000 nM) | CC(=O)N1CCC(Oc2cc(NC3CCC(F)(F)CC3)nc(-n3ccc(C)n3)c2)CC1 [IN11218-025-P1, 1-(4-((2-((4,4-difluorocyclohexyl)amino)-6-(3-methyl-1H-pyrazol-1-yl)pyridin-4-yl)oxy)piperidin-1-yl)ethan-1-one]
37 | + (+ means >1 uM) | COC(=O)N1CC(Oc2cc(NC3CCC(F)(F)CC3)nc(N3CCCC3)n2)C1 [NSSy6054]
38 | + (+ means >1 uM) | C/C(=N\O)Nc1cc(NC2CCC(F)(F)CC2)nc(-c2nc(C)no2)n1 [NSSy5830, (E)-N-(6-((4,4-difluorocyclohexyl)amino)-2-(3-methyl-1,2,4-oxadiazol-5-yl)pyrimidin-4-yl)-N′-hydroxyacetimidamide]
39 | ++ (++ means 200 nM-1000 nM) | CC(=O)NCc1cc(NC2CCC(F)(F)CC2)nc(-c2nc(CF)cs2)c1 [NSSy5644, N-((2-((4,4-difluorocyclohexyl)amino)-6-(4-(fluoromethyl)thiazol-2-yl)pyridin-4-yl)methyl) acetamide]
40 | ++ (++ means 200 nM-1000 nM) | OCc1cc(NC2CCC(F)(F)CC2)nc(-n2ccc(C3CC3)n2)n1 [IN11137-074-P1, (2-(3-cyclopropyl-1H-pyrazol-1-yl)-6-((4,4-difluorocyclohexyl)amino)pyrimidin-4-yl) methanol]
41 | + (+ means >1 uM) | Cc1ccn(-c2nc(NC(C)C)cc(C(C)O)n2)n1 (stereo not drawn) [IN10880-056-P1]

Row | SMILES | SC100 (μM)
42 | Cc1csc(-c2cc(N3CCOCC3)cc(NC3CCC(F)(F)CC3)n2)n1 [NSSy5646] | ++ (++ means 200 nM-1000 nM)
